From ChEMBL document CHEMBL1201862, “PubChem BioAssay data set” (2004) come the findings set out here.

Some test systems named below: 786-0; BT-549; CCRF-CEM; EKVX; HCC 2998; HT-29; MCF7; MOLT-4; NCI-H23; PC-3; RXF 393; SF-539; SK-MEL-5; SNB-19; T47D; UACC-257; MDA-N; NCI-H522; OVCAR-3; SN12C.
Common to all, as to test: NCI-60 cell line screen, 48 h

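Assay format: 96-well plates, 48-hour exposure. GI50: concentration for 50% inhibition of growth.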 The source made the active and inactive calls. No stated cut-off is given here; in the data, active = GI50 up to about 1.1 µM and inactive = higher. Some results are limits rather than exact numbers.

Consider `CC(C)[Si]1(C(C)C)OCC2OC3(CO)C(Oc4nc(=O)ccn43)C2O[Si](C(C)C)(C(C)C)O1` (stereo not given), for which the GI50 in the assay on 786-0 is 14.6 µM (inactive); in the assay with BT-549 it was 11.6 µM (inactive); in the assay on CCRF-CEM, 5.14 µM (inactive); in the assay on EKVX it was 17.1 µM (inactive); with HCC 2998, 12.5 µM (inactive); with HT-29, 12.4 µM (inactive). Moreover, the GI50 in the assay with MCF7 was 5.9 µM (inactive); with MOLT-4, 7.55 µM (inactive); in the assay with NCI-H23, 15.5 µM (inactive); in the assay with PC-3, 5.4 µM (inactive); with RXF 393, 5.57 µM (inactive); with SF-539 it was 15 µM (inactive). Moreover, the GI50 in the assay on SK-MEL-5 was 13.5 µM (inactive); in the assay with SNB-19 it was 15.9 µM (inactive); in the assay on T47D, 9.59 µM (inactive); with UACC-257, 14.7 µM (inactive).

Consider `N#CCC12CC=CCC1=C(O)C(=O)c1ccc(O)cc12` (stereo not given), for which the GI50 in the assay on 786-0, in the assay with CCRF-CEM, in the assay on EKVX, with HCC 2998, in the assay with HT-29 and in the assay with MCF7 was > 100 µM (inactive) each time. Moreover, the GI50 in the assay on MDA-N, in the assay on MOLT-4, in the assay on NCI-H23, in the assay on NCI-H522, in the assay on OVCAR-3 and in the assay on PC-3 was > 100 µM (inactive) in each case. Also, the GI50 in the assay on RXF 393, with SF-539, with SK-MEL-5, in the assay with SN12C, in the assay on SNB-19 and in the assay on T47D was > 100 µM (inactive) each time. For the same molecule, in the assay on UACC-257, the GI50 is > 100 µM (inactive).

Take `COc1ccc2c(c1)C(=O)OCCC2`: the GI50 in the assay with 786-0, in the assay on BT-549, in the assay on CCRF-CEM, in the assay on EKVX, in the assay with HCC 2998 and in the assay on HT-29 was > 100 µM (inactive) in each case. Further, the GI50 in the assay on MCF7, in the assay on MOLT-4, in the assay with NCI-H23, in the assay with NCI-H522, in the assay on OVCAR-3 and in the assay on PC-3 was > 100 µM (inactive) in each case. Also, the GI50 with RXF 393, with SF-539, in the assay on SK-MEL-5, in the assay on SN12C, with SNB-19 and in the assay on T47D was > 100 µM (inactive) in each case. The GI50 in the assay on UACC-257 was > 100 µM (inactive).

On to `Clc1cc(Cl)ncn1`, for which the GI50 with 786-0, with CCRF-CEM, in the assay with HCC 2998, in the assay with HT-29, in the assay with MCF7 and with MDA-N was > 100 µM (inactive) each time. Further, the GI50 with MOLT-4, with NCI-H23, in the assay with NCI-H522, in the assay on OVCAR-3, with PC-3 and in the assay on RXF 393 was > 100 µM (inactive) throughout. For the same molecule, the GI50 in the assay on SF-539, in the assay on SK-MEL-5, with SN12C, with SNB-19 and in the assay with T47D was > 100 µM (inactive) throughout.

Take `N/N=C1N=C(Cl)/C(=C/c2ccco2)N\1`: the GI50 in the assay on 786-0 was 61.5 µM (inactive); in the assay with CCRF-CEM it was 31.4 µM (inactive); in the assay with EKVX, > 100 µM (inactive); with HCC 2998, 27.6 µM (inactive); with HT-29 it was 34.9 µM (inactive); with MCF7, 56 µM (inactive). The GI50 with MDA-N was 47.8 µM (inactive); with MOLT-4, 11.9 µM (inactive); with NCI-H23 it was 54.8 µM (inactive); with NCI-H522, 22.7 µM (inactive); in the assay with OVCAR-3, 28.7 µM (inactive); with PC-3, 36.7 µM (inactive). Moreover, the GI50 in the assay on RXF 393 is 65.2 µM (inactive); in the assay on SF-539, 22.4 µM (inactive); in the assay with SK-MEL-5 it was 34 µM (inactive); in the assay on SN12C, 67.1 µM (inactive); in the assay with SNB-19 it was 50.5 µM (inactive); with T47D, 40.4 µM (inactive). For the same molecule, in the assay with UACC-257, the GI50 is 52.8 µM (inactive).

With `CCOC(=O)N(C)C1(c2ccccc2)CCN(CCCC(=O)c2ccc(F)cc2)CC1`, the GI50 with 786-0 was 33 µM (inactive); with CCRF-CEM, 31.7 µM (inactive); in the assay on EKVX it was > 100 µM (inactive); in the assay on HCC 2998 it was 21 µM (inactive); in the assay on HT-29, 19.7 µM (inactive); in the assay with MCF7, 33.4 µM (inactive). Moreover, the GI50 in the assay with MDA-N is 21.7 µM (inactive); with MOLT-4, 31.8 µM (inactive); in the assay on NCI-H23 it was 68.7 µM (inactive); in the assay with NCI-H522 it was 87.9 µM (inactive); in the assay with OVCAR-3, 44 µM (inactive); in the assay with PC-3, 36.8 µM (inactive). Also, the GI50 is 57.8 µM (inactive) with RXF 393; 28.6 µM (inactive) in the assay with SF-539; 17.3 µM (inactive) in the assay on SK-MEL-5; 83.4 µM (inactive) in the assay on SN12C; 0.0647 µM (active) in the assay on SNB-19; 61.1 µM (inactive) in the assay with T47D. For the same molecule, the GI50 in the assay with UACC-257 is 20.3 µM (inactive).

Regarding `C[C@]12CC[C@H](O)CC1=CC[C@@H]1[C@@H]2CC[C@]2(C)C(=O)[C@@H](N3CCOCC3)C[C@@H]12`, the GI50 was > 100 µM (inactive) in the assay with 786-0; 99.8 µM (inactive) with CCRF-CEM; 40.6 µM (inactive) in the assay on EKVX; > 100 µM (inactive) in the assay with HCC 2998; > 100 µM (inactive) with HT-29; > 100 µM (inactive) in the assay with MCF7. Besides, the GI50 with MDA-N was > 100 µM (inactive); in the assay on MOLT-4, 55.3 µM (inactive); in the assay on NCI-H23 it was 57.8 µM (inactive); with NCI-H522, 23.6 µM (inactive); in the assay on OVCAR-3, > 100 µM (inactive); with PC-3, > 100 µM (inactive). For the same molecule, the GI50 is 36.9 µM (inactive) in the assay with RXF 393; > 100 µM (inactive) with SF-539; 33.1 µM (inactive) with SK-MEL-5; > 100 µM (inactive) in the assay with SN12C; > 100 µM (inactive) in the assay with SNB-19; 31 µM (inactive) in the assay with T47D. Besides, in the assay with UACC-257, the GI50 was > 100 µM (inactive).

As to `OC(c1ccc(F)cc1)C(F)(F)c1nc2ccccc2o1` (stereo not given), the GI50 in the assay on 786-0, in the assay on BT-549, in the assay on CCRF-CEM, with EKVX, with HCC 2998 and in the assay with HT-29 was > 100 µM (inactive) in each case. For the same molecule, the GI50 with MCF7 was > 100 µM (inactive); with MOLT-4 it was 46.6 µM (inactive); in the assay on NCI-H23, > 100 µM (inactive); in the assay on PC-3, > 100 µM (inactive); with RXF 393 it was 39.4 µM (inactive); in the assay with SF-539 it was > 100 µM (inactive). The GI50 was 50 µM (inactive) in the assay with SK-MEL-5, > 100 µM (inactive) with SNB-19, 76 µM (inactive) in the assay with T47D and 57.4 µM (inactive) in the assay on UACC-257.

On to `CCOC(=O)c1c(SC)nc(-c2ccc(Cl)cc2)sc1=N.[O-][Cl+3]([O-])([O-])O`, for which the GI50 was 27.3 µM (inactive) in the assay with 786-0; 30 µM (inactive) in the assay on BT-549; 39.9 µM (inactive) in the assay with CCRF-CEM; 22 µM (inactive) with EKVX; 22.7 µM (inactive) in the assay on HCC 2998; 25.8 µM (inactive) with HT-29. For the same molecule, the GI50 in the assay with MCF7 was 29 µM (inactive); in the assay on MOLT-4, 26.4 µM (inactive); in the assay on NCI-H23, 22.6 µM (inactive); with OVCAR-3 it was 33.2 µM (inactive); in the assay with PC-3, 26.1 µM (inactive); in the assay on RXF 393 it was 33.9 µM (inactive). Besides, the GI50 with SF-539 is 32.1 µM (inactive); with SK-MEL-5, 15.2 µM (inactive); with SN12C, 44.4 µM (inactive); in the assay on SNB-19, 94.4 µM (inactive); in the assay with T47D, 31.9 µM (inactive); with UACC-257, 34.6 µM (inactive).

Regarding `COC(=O)c1ccccc1CC1Cc2cc3c(cc2C1)CCC3`, the GI50 in the assay with 786-0 was 36.5 µM (inactive); in the assay with CCRF-CEM, 20.4 µM (inactive); with EKVX, 45.5 µM (inactive); with HCC 2998 it was 42.5 µM (inactive); in the assay with HT-29, 29.2 µM (inactive); in the assay with MCF7 it was 45.9 µM (inactive). For the same molecule, the GI50 was 47.8 µM (inactive) with MDA-N; 18.5 µM (inactive) with MOLT-4; 38.5 µM (inactive) in the assay with NCI-H23; 28.6 µM (inactive) with NCI-H522; 32.7 µM (inactive) in the assay on OVCAR-3; 39.3 µM (inactive) in the assay with PC-3. For the same molecule, the GI50 with RXF 393 is 20.9 µM (inactive); with SF-539 it was 54.2 µM (inactive); with SK-MEL-5 it was 25.8 µM (inactive); with SN12C it was 40.2 µM (inactive); in the assay on SNB-19 it was 74.1 µM (inactive); with T47D it was 50.9 µM (inactive). Besides, the GI50 in the assay on UACC-257 was 31.2 µM (inactive).

Consider `CCOC(=O)NC(NC1=NCCS1)(C(=O)OCC)C(F)(F)F` (stereo not given), for which the GI50 in the assay on 786-0, with CCRF-CEM, in the assay on EKVX, with HCC 2998, in the assay on HT-29 and with MCF7 was > 100 µM (inactive) in each case. Also, the GI50 in the assay on MDA-N, in the assay with MOLT-4, in the assay on NCI-H23, in the assay on NCI-H522, with OVCAR-3 and in the assay on PC-3 was > 100 µM (inactive) each time. Also, the GI50 in the assay with RXF 393, in the assay on SF-539, in the assay on SK-MEL-5, in the assay with SN12C, in the assay on SNB-19 and in the assay with T47D was > 100 µM (inactive) in each case. The GI50 in the assay with UACC-257 is > 100 µM (inactive).
